From paper PMC8435859 (Frontiers in Cellular and Infection Microbiology, 2021)
Where two headings read alike, the source gives them in different places.

Columns and labels:
[1] = cited from earlier work; for Solubility in water (in words): library annotation
A549 cells = test system: A549 cells; design: method as in Li M, et al. Neurosci Lett. 2016; details: vendor library annotation, ref Li M, et al. Neurosci Lett. 2016, read-out: LC50 (the source's name); cited from earlier work
[2] = test system: human adenovirus type 3 (HAdV-3); design: method as in Li M, et al. Neurosci Lett. 2016; details: HAdV-3 in A549 cells; vendor library annotation; ref Li M, et al. Neurosci Lett. 2016; cited from earlier work
[3] = Cytotoxicity, CellTiter-Blue Cell Viability Assay; details: African green monkey
GX_P2V NP protein = type: cell-based, Pangolin coronavirus
GX_P2V [4] = assay: microbe, parasite or virus in culture; type: cell-based, Pangolin coronavirus
SARS-CoV-2 isolate WIV04 = assay: Anti-SARS-CoV-2 activity in vitro, viral yield in Vero E6 supernatant by qRT-PCR; type: cell-based, Severe acute respiratory syndrome coronavirus 2; details: for SI: CC50/EC50, SARS-CoV-2 WIV04 in Vero E6; for EC50: SARS-CoV-2 WIV04 MOI 0.01, Vero E6, 24 h.p.i., supernatant qRT-PCR
From the text: To verify the drugs screened through the GX_P2V drug screening alternative model, we repeatedly tested the antiviral activity of the above drugs on SARS-CoV-2. In brief, Vero E6 cells were pre-seeded in 48-well plates at a density of 5×10^4 cells/well and continued to be cultured overnight. Two hours before infection, the culture supernatant of Vero E6 cells was discarded and replaced with a DMEM medium containing different concentration gradient drugs. Vero E6 cells were continued to be cultured for 2 hours, which was conducive to the early entry of the drugs into the cells. Vero E6 cells were infected with WIV04 at a MOI=0.01 for 1 h. After discarding the supernatant, the cells were washed twice with DMEM, and the medium was changed to a DMEM medium (10%FBS) containing the corresponding concentration of the drug. After 24 h.p.i, the cell supernatant was collected. According to the manufacturer’s instructions, the viral RNA was extract using Magnetic Bead Virus RNA Extraction Kits (Shanghai Fine Gene Biotech, FG438). The viral yield in the cell supernatant was then quantified by qRT-PCR using HiSxript II One step qRT-PCR SYBRGreen Kit (Vazyme, Nanjing, China).

GX_P2V [5] = type: cell-based, Pangolin coronavirus
CYP3A = test system: CYP3A; design: method as in Wang CP, et al. J Physiol Biochem. 2014 Sep;70(3):735-47; details: ref Wang CP, et al. J Physiol Biochem. 2014 Sep;70(3):735-47; cited from earlier work
Vero E6 cells = assay: Cytotoxicity, CellTiter-Blue Cell Viability Assay; details: Vero E6 cells, CellTiter-Blue
[6] = test system: prolyl oligopeptidase (POP); design: method as in ref Zhou XQ et al., Flavonoids from Scutellaria baicalensis and their bioactivities; details: concentration of 100 microM; ref Zhou XQ et al., Flavonoids from Scutellaria baicalensis and their bioactivities; cited from earlier work
[7] = test system: human tumor cell line panel; design: method as in Huang Y et al., Journal of Natural Products, 1998; details: library annotation, ref Huang Y et al., Journal of Natural Products, 1998; cited from earlier work
yeast-α-glucosidase = target: yeast-α-glucosidase; design: method as in ref Saw C L L et al., Biopharmaceutics & Drug Disposition, 2014, 34(6):303-311; details: ref Saw C L L et al., Biopharmaceutics & Drug Disposition, 2014, 34(6):303-311, cited from earlier work
in vitro = details: African green monkey
aldose reductase = details: aldose reductase; vendor library annotation; ref Aida K, et al. Planta Med, 1990; read-out: IC50; cited from earlier work
SARS-CoV-2 = test system: SARS-CoV-2; design: method as in Cao et al., 2020; details: SARS-CoV-2 in vitro; ref Cao et al., 2020; cited from earlier work
[8] = Pangolin coronavirus, Vero C1008, 72 h
[9] = Severe acute respiratory syndrome coronavirus 2, Vero C1008, 24 h

In the case of `O=C(/C=C/c1ccc(O)c2c1[C@@H](C(=O)O[C@H](Cc1ccc(O)c(O)c1)C(=O)O)[C@H](c1ccc(O)c(O)c1)O2)O[C@H](Cc1ccc(O)c(O)c1)C(=O)O` [lithospermic acid B], the “Solubility in water (in words)” value ([1]; ref Wang J, et al. Evidence-Based Complementary and Alternative Medicine, 2013, 2013:1-16.) is listed as “lithospermic acid B is a water-soluble antioxidant from Salvia extract. It plays significant role of antioxidant effect; antiplatelet aggregation, anticoagulant, and antithrombotic effect”.

In the case of `CC(C)(O)[C@@H]1CC[C@](C)([C@H]2[C@@H](O)C[C@@]3(C)[C@@H]4C[C@H](O[C@@H]5O[C@H](CO)[C@@H](O)[C@H](O)[C@H]5O)[C@H]5C(C)(C)[C@@H](O[C@@H]6OC[C@@H](O)[C@H](O)[C@H]6O)CC[C@@]56C[C@@]46CC[C@]23C)O1` [Astragaloside IV], the CC50 (A549 cells) is listed as 865 µM and the IC50 [2] is listed as 23 µM.

In the case of `C=C1CC[C@@H]2[C@](C)(CO)[C@H](O)CC[C@@]2(C)[C@@H]1C/C=C1/C(=O)OC[C@H]1O` [andrographolide], the CC50 [3] is reported as 95.8 µM, the CC50 ([3]; Vero E6 cells) is reported as 95.7 µM and the “expression of viral NP protein” value (GX_P2V NP protein) is reported as “achieved the same inhibitory effect”. It also gave an SI (GX_P2V [4]; CC50/EC50, GX_P2V in Vero E6) of 14.11, an EC50 (GX_P2V [4]; [8]) of 6.79 µM and an SI (SARS-CoV-2 isolate WIV04) of 8.61. It also gave an EC50 (SARS-CoV-2 isolate WIV04; [9]) of 11.1 µM.

In the case of `CCN(CCO)CCCC(C)Nc1ccnc2cc(Cl)ccc12` (stereo not shown) [hydroxychloroquine], the CC50 [3] is reported as 60.3 µM, the SI (GX_P2V [4]; CC50/EC50, GX_P2V in Vero E6) is reported as 9.157 and the EC50 (GX_P2V [4]; [8]) is reported as 6.59 µM.

With `CO[C@H]1O[C@@H]2O[C@@]3(C)CC[C@H]4[C@H](C)CC[C@@H]([C@H]1C)[C@@]24OO3` [artemether, reference compound] the CC50 ([3]; Vero E6 cells) was over 200 µM, the “expression of viral NP protein” value (GX_P2V NP protein) was “almost completely inhibited” and the EC50 (GX_P2V [4]; [8]) was 3.7 µM. The “stage of action in time-of-addition assay” value (GX_P2V [5]) was “functioned on both entry and post-entry stages”.

For `Cc1cccc(C)c1OCC(=O)N[C@@H](Cc1ccccc1)[C@@H](O)C[C@H](Cc1ccccc1)NC(=O)[C@H](C(C)C)N1CCCNC1=O` [lopinavir], the CC50 [3] was over 25 µM, the SI (GX_P2V [4]; CC50/EC50, GX_P2V in Vero E6) was over 2.13 and the EC50 (GX_P2V [4]; [8]) was 11.7 µM.

In the case of `COc1cc2c(c(OC)c1OC)-c1c(cc(OC)c(OC)c1OC)C[C@H](C)[C@H](C)C2` [Schizandrin A], the IC50 (CYP3A) is listed as 6.6 µM and the Ki (CYP3A) is listed as 5.83 µM.

With `COc1c(/C=C/C(=O)c2ccc(O)cc2)ccc(O)c1O` [licochalcone B, Licochalcone B] the CC50 (Vero E6 cells) was 106 µM, the “expression of viral NP protein” value (GX_P2V NP protein) was “most viral NP proteins can be inhibited” and the SI (GX_P2V [4]) was 4.28. For the same compound, the EC50 (GX_P2V [4]; read-out: EC50) was 24.9 µM, the SI (SARS-CoV-2 isolate WIV04) was 6.86 and the EC50 (SARS-CoV-2 isolate WIV04) was 15.5 µM.

For `COc1cc(O)ccc1/C=C/C(=O)c1ccc(O)cc1` [echinatin], the CC50 [3] was 158 µM, the CC50 ([3]; Vero E6 cells) was 120 µM and the “expression of viral NP protein” value (GX_P2V NP protein) was “most viral NP proteins can be inhibited”. The EC50 (GX_P2V [4]; [8]) was 20.9 µM, the SI (SARS-CoV-2 isolate WIV04) was 15.27 and the EC50 (SARS-CoV-2 isolate WIV04; [9]) was 7.86 µM.

For `COc1c(O)cc2oc(-c3ccc(O)cc3)cc(=O)c2c1O` [4', 5,7-trihydroxy-6-methoxyflavone], the “inhibition of total prolyl oligopeptidase (POP) activity” value [6] is listed as 43%.

For `Cc1c(O)cccc1C(=O)N[C@@H](CSc1ccccc1)[C@H](O)CN1C[C@H]2CCCC[C@H]2C[C@H]1C(=O)NC(C)(C)C` [nelfinavir], the CC50 [3] was 39.3 µM, the SI (GX_P2V [4]; CC50/EC50, GX_P2V in Vero E6) was 5.86 and the EC50 (GX_P2V [4]; [8]) was 6.71 µM.

In the case of `CC(C)C1=CC(=O)[C@](C)([C@H]2[C@H](O)C[C@@]3(C)[C@@H]4CC=C5[C@@H](CC[C@@H](O[C@@H]6OC[C@@H](O)[C@H](O)[C@H]6O[C@@H]6O[C@@H](C)[C@H](O)[C@@H](O)[C@H]6O)C5(C)C)[C@]4(C)C(=O)C[C@]23C)O1` [Picfeltarraenin IA], the “cytotoxic activity in vitro” value [7] is listed as 1. Picfeltarraenin IB and Picfeltarraenin IA displayes no cytotoxic activity in vitro human tumor cell line panel.

For `CC(C)C1=CC(=O)[C@@](C)([C@H]2[C@H](O)C[C@@]3(C)[C@@H]4CC=C5[C@@H](CC[C@@H](O[C@@H]6O[C@H](CO)[C@@H](O)[C@H](O)[C@H]6O[C@@H]6O[C@@H](C)[C@H](O)[C@@H](O)[C@H]6O)C5(C)C)[C@]4(C)C(=O)C[C@]23C)O1` [Picfeltarraenin IB], the “cytotoxic activity in vitro” value [7] is listed as 1. Picfeltarraenin IB and Picfeltarraenin IA displayes no cytotoxic activity in vitro human tumor cell line panel.

For `CCC/C=C1/OC(=O)c2ccccc21` [n-Butylidenephthalide], the Ki (yeast-α-glucosidase; noncompetitive fashion, read-out: K(i), yeast-α-glucosidase) is given as 4860 µM and the IC50 (yeast-α-glucosidase; noncompetitive, read-out: IC(5), inhibition of yeast-α-glucosidase activity) is given as 2350 µM.

For `CCN(CC)CCCC(C)Nc1ccnc2cc(Cl)ccc12` (stereo not shown) [chloroquine], the SI (GX_P2V [4]) was over 3.92, the EC50 (GX_P2V [4]; [8]) was 12.8 µM and the CC50 (in vitro) was over 50 µM.

For `O=C(/C=C/c1ccc(O)cc1)c1ccc(O)cc1O` [Isoliquiritigenin], the IC50 (aldose reductase) is given as 0.32 µM.

In the case of `C[C@H]1[C@H](OC(=O)CCC(=O)O)O[C@@H]2O[C@@]3(C)CC[C@H]4[C@H](C)CC[C@@H]1[C@@]24OO3` [artesunate, reference compound], the CC50 [3] is reported as 127 µM, the CC50 ([3]; Vero E6 cells) is reported as 127 µM and the “expression of viral NP protein” value (GX_P2V NP protein) is reported as “most viral NP proteins can be inhibited”. For the same compound, the EC50 (GX_P2V [4]; [8]) was 10.1 µM, the EC50 (SARS-CoV-2) was 13 ± 5.3 µM and the “Solubility in water (in words)” value ([1]; ref Xu N, et al. Int J Med Sci. 2015, 12(6):524-529.) was “Artesunate is part of the artemisinin group of drugs that treat malaria. It is a semi-synthetic derivative of artemisinin that is water-soluble and may therefore be given by injection. It is on the World Health Organization's List of Essential Medicines”. For the same compound, the SI (SARS-CoV-2 isolate WIV04) was 7.84 and the EC50 (SARS-CoV-2 isolate WIV04; [9]) was 16.2 µM.

For `CCC(CC)COC(=O)[C@H](C)N[P@](=O)(OC[C@H]1O[C@@](C#N)(c2ccc3c(N)ncnn23)[C@H](O)[C@@H]1O)Oc1ccccc1` [remdesivir], the CC50 [3] was over 25 µM, the SI (GX_P2V [4]; CC50/EC50, GX_P2V in Vero E6) was over 33.78 and the EC50 (GX_P2V [4]; [8]) was 0.74 µM.

In the case of `COc1ccc(-c2cc(=O)c3c(OC)c(OC)c(OC)c(OC)c3o2)cc1OC` [Nobiletin], the solubility in water ([1]; vendor library annotation, ref Murakami A, et al. Cancer Res, 2000) is given as “Nobiletin is a natural polymethoxylated flavone isolated from citrus peels with anti-inflammatory and anti-tumor activities. Nobiletin is practically insoluble (in water) and an extremely weak acidic compound (based on its pKa)”.

For `COc1c(O[C@@H]2O[C@H](C(=O)O)[C@@H](O)[C@H](O)[C@H]2O)cc2oc(-c3ccccc3)cc(=O)c2c1O` [Oroxylin A 7-O-beta-D-glucuronide], the “inhibition of total prolyl oligopeptidase (POP) activity” value [6] is listed as 34%.

For `C=C1C(=O)O[C@@]23[C@H]1CC[C@@H](C)[C@@H]2CC[C@@]1(C)O[C@@H]31` [arteannuin B], the CC50 [3] was 111 µM, the CC50 ([3]; Vero E6 cells) was 117 µM and the “expression of viral NP protein” value (GX_P2V NP protein) was “achieved the same inhibitory effect”. The EC50 (GX_P2V [4]; [8]) was 8.84 µM, the EC50 (SARS-CoV-2) was 10.3 ± 1.12 µM and the SI (SARS-CoV-2 isolate WIV04) was 9.72. For the same compound, the EC50 (SARS-CoV-2 isolate WIV04; [9]) was 12 µM.

In the case of `COc1ccc(-c2cc(=O)c3c(O)cc(O[C@@H]4O[C@H](CO)[C@@H](O)[C@H](O)[C@H]4O[C@@H]4O[C@@H](C)[C@H](O)[C@@H](O)[C@H]4O)cc3o2)cc1O` [Neodiosmin], the aqueous solubility ([1]; ref Mencherini T, et al. Journal of Agricultural and Food Chemistry, 2013, 61(8):1686-1693) is listed as 1. Neodiosmin has poor aqueous solubility but exerts a good debittering effect and is a strong antioxidant with potential applications in foods, beverages, and pharmaceutical preparations.
